What is called IC50 is the concentration needed to halve the response being measured. A low value points to higher potency. In general, inhibition refers to how much of the control response was suppressed. The low end stands for little suppression, the high end for strong suppression.

Each structure is given as a SMILES string.

The test system of experiment [1] is Dictyostelium discoideum. The experiment in a line: Antimicrobial activity against Dictyostelium discoideum. It is filed as functional, organism-based.
For experiment [2], the target named is T1, Farnesyl pyrophosphate synthase (Homo sapiens) (UniProt P14324).
T1 sequence (whole entry): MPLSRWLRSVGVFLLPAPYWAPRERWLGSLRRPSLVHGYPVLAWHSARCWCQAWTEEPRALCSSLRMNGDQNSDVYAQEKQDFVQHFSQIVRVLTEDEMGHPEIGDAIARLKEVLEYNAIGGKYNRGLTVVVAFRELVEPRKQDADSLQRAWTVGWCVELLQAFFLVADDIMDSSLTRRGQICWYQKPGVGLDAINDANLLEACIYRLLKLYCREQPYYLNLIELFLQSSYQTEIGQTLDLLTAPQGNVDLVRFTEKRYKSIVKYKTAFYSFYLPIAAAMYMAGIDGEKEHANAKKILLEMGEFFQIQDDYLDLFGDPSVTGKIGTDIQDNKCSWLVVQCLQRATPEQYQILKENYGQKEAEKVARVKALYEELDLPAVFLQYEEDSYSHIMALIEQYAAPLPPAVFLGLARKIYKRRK
The experiment in a line: Inhibition of farnesyl diphosphate synthase at 30 nM.

The target in experiment [3] is T1, Farnesyl pyrophosphate synthase (Homo sapiens). Nature of the experiment: Inhibition of farnesyl diphosphate synthase at 35 nM.

For `Nc1ccccc1CC(O)(P(=O)(O)O)P(=O)(O)O`, half-maximal inhibition in experiment [1] (IC50) required 18 µM.
On the same count and under the same terms, then `O=P(O)(O)C(O)(Cc1ccccc1)P(=O)(O)O`, with less than 240 µM.
With `O=P(O)(O)C(O)(CC1CCCNC1)P(=O)(O)O` (stereo unspecified), in experiment [2], the inhibition was 58%. For the same molecule, the half-inhibitory concentration (IC50) in experiment [1] is 30 µM.
The molecule `CC[n+]1cccc(CC(P(=O)([O-])O)P(=O)(O)O)c1` (stereo unspecified) displayed an inhibition in experiment [3] of 59%. The same molecule displayed an IC50 in experiment [1] of 27 µM.

For the origin of these results see ChEMBL document CHEMBL1155115 (J Med Chem, 2008).
